Results as given in patent USRE47141E1, “Methods of treating fibrosis, cancer and vascular injuries” (EWHA University—Industry Collaboration Foundation, priority 2010, dated 2018).

Experiments:
[1] = system: BALB/c 4T1 xenografted mice; experiment: Anti-metastatic effect on BALB/c 4T1 xenografted mice model; type: in vivo
Procedure: Female BALB/c mice were purchased from Orient Bio Inc. (Seoul, Korea). Animals were maintained in a temperature-controlled room (22° C.) and supplied with food and water ad libitum. 4T1 cells (1.2×10^4 cells) were suspended in PBS and implanted into the left #4 mammary fat pad of five to six-week-old female BALB/c mice (day 0). In Experiment 1, treatment was started after tumor implantation (day 0). […] In Experiment 2, treatment was started on day 4. […] In Experiment 3, treatment was started on day 4. […] In Experiment 4, 4T1 cells (1×10^4 cells) were suspended in PBS and implanted into the left #4 mammary fat pad of ten-week-old female BALB/c mice (day 0). Treatment was started on day 10. Example 61 (43.6 mg/kg) dissolved in saline was given to mice intraperitoneally every other day for 2.5 weeks. In all Experiments, mice were sacrificed at 24 to 72 h after the last dosing, and 15% India ink solution (Hardy Diagnostics) in PBS was immediately injected into the trachea. […] Number of metastatic nodule was counted on the surface of left lobe of lung, and picture of lung was taken with digital camera. The tumor size was measured using calipers, and the tumor volume was calculated by using the following equation: Tumor volume=(0.5236)×(width)^2×(length)
Either vehicle buffer (4 mM HCl, 1 mg/mL BSA) or TGF-β1 (50 ng/mouse) in vehicle buffer was given to mice intravenously at 2 h before mice were sacrificed. Tumor tissues from mice were lysed in RIPA buffer [50 mM Tris, pH 7.5, 150 mM NaCl, 0.1% sodium dodecyl sulfate, 0.5% sodium deoxycholate, 1% NP-40, 1 mM NaF, 1 mM Na3VO4, 1 mM PMSF, a protease inhibitor cocktail (1 tablet of Roche Diagnostics GmbH protease inhibitor cocktail/10 mL) (Roche)] for 20 min on ice. Lysates were cleared by centrifugation at 13000 rpm at 4° C. for 20 min. Protein content of supernatants was determined using Micro-BCA (bicinchoninic acid) protein assay kit (Thermo Scientific). Lysates containing 20-50 μg total protein were separated by electrophoresis on polyacrylamide gel and then electrophoretically transferred to polyvinylidene difluoride transfer membranes (Millipore, Billerica, Mass., USA). Membranes were blocked with 5% BSA (Sigma-Aldrich) in PBS containing 0.5% Tween-20 (PBST) for 1 h and incubated overnight at 4° C. with one of following antibodies: anti-phospho-Smad2 (Millipore), anti-Smad2/3 (BD Transduction Laboratories, NJ, USA), or anti-β-actin (Sigma-Aldrich) in PBST containing 1% BSA. […] Bound antibodies were detected using Western Blotting Luminol Reagent (SantaCruz Biotechnology). Band intensities were analyzed using a densitometer LAS-3000 imager (FUJIFILM, Tokyo, Japan).

[2] = system: MCF10A cells; experiment: Wound healing assay; type: cell-based; conditions: TGF-β1 2 ng/mL, 1 μM, 16 h
Procedure: MCF10A cells were seeded at 2×10^5 cells/well in 6-well plate. When each well was occupied by cells over 80% of the area, 10% FBS was changed to 0.2% FBS. […] Wound area change from 0 to 16 h was calculated based on Image J program (National Institutes of Health, MD, USA) based on phase-contrast images of cells taken by microscope.

What does the source list for `Cc1cccc(-c2[nH]c(CNc3ccccc3F)nc2-c2ccc3ncnn3c2)n1` [Example 2, N-((4-([1,2,4]triazolo[1,5-a]pyridin-6-yl)-5-(6-methylpyridin-2-yl)-1H-imidazol-2-yl)methyl)-2-fluoroaniline]?
number of metastastic nodules on the lung ([1]; Example 3 13.6 or 27.3 mg/kg orally BID, four weeks, Example 2 5, 10, 20, or 40 mg/kg orally, Example 61 43.6 mg/kg intraperitoneally every other day, 2.5 weeks): significantly reduced; TGF-β1-induced Smad2 phosphorylation in tumor tissues ([1]; Experiment 3, 5, 10, 20, or 40 mg/kg orally every other day for 24 days, Western blot): suppressed; TGF-β1-induced cell migration [2]: suppressed
